Source: PMC3069143 (Analytical chemistry, 2011)
Like-named read-outs stand apart in the source and are kept apart here.

How the values were obtained:
[1] = tested on: Calf thymus ds-DNA
[2] = tested on: Salmonella typhimurium TA1538; details: ref Table S2 (SI); cited from earlier work
[3] = tested on: Salmonella typhimurium TA1535; details: ref Table S2 (SI); cited from earlier work
[4] = tested on: human hepatic cell lines; details: ref Table S2 (SI); cited from earlier work
[5] = tested on: rodent; details: cited from earlier work; for LD50 (in words): rat for styrene and NPYR, mouse for arylamines
[6] = tested on: rodent; details: cited from earlier work
[7] = tested on: Calf thymus ds-DNA; experiment: ECL genotoxicity array, multi-enzyme; details: for ECL turnover rate R (in words): arylamines, HLE or MLE, AcCoA + NADPH
[8] = 1 min enzyme reaction, RLE or HLE

CN(CCCC(=O)c1cccnc1)N=O [NNK, 4-(methylnitrosamino)-1-(3-pyridyl)-1-butanone]
ECL produced relative to styrene ([1]; 0.2 mM substrate, either RLE or HLE, NADPH regenerating system): 2–3 times | substrate concentration giving measurable ECL increase [1, 8]: 0.2 mM | Ames mutagenicity, TA1538 [2]: not mutagenic | Ames mutagenicity, TA1535 [3]: only slightly mutagenic | Comet assay OTM/conc. [4]: small

C=Cc1ccccc1 [styrene]
ECL turnover rate R (in words) [1]: small | substrate concentration giving measurable ECL increase [1]: 1 mM | Comet assay OTM/conc. [4]: small | LD50 (in words) [5]: small

Cc1c(N)cccc1N [2,6-DAT, 2,6-diaminotoluene]
induction of liver tumors ([6]; rat models): fails to induce liver tumors | ECL turnover rate R (in words) [7]: small but significant

Nc1ccc2ccccc2c1 [2-NA, 2-naphthylamine]
ECL turnover rate R (in words) [7]: did not generate large R

Cc1ccccc1 [toluene]
TD50 ([6]; liver TD50, rodent): 5390 mg/kg body weight per day | LD50 ([5]; rodent, single dose): 2250 mg/kg body weight

Nc1ccc(-c2ccccc2)cc1 [4-ABP, 4-aminobiphenyl]
ECL turnover rate R (in words) [7]: largest

Cc1ccc(N)cc1N [2,4-DAT, 2,4-diaminotoluene]
LD50 (in words) [5]: small | R relative to 2,6-DAT ([7]; isomer pair 2,4-DAT vs 2,6-DAT): 3 fold

CC(=O)Nc1ccc2c(c1)Cc1ccccc1-2 [2-AAF, N-acetyl-2-aminofluorene]
Comet assay OTM/conc. [4]: large

O=NN1CCCC1 [NPYR, N-nitrosopyrrolidine]
substrate concentration giving measurable ECL increase [1, 8]: 0.2 mM | Ames mutagenicity, TA1538 [2]: not mutagenic | Ames mutagenicity, TA1535 [3]: only slightly mutagenic | LD50 (in words) [5]: small
